Measured values published in patent US6849616B1, “Methods to potentiate intravenous estramustine phosphate” (Pharmacia Italia S.p.A., priority 1998, dated 2005).

How the values were obtained:
[1] = test system: estramustine binding protein (EMBP); details: cited from earlier work
[2] = patients, single intravenous dose of 300 mg; previous data; cited from earlier work
[3] = Gunnarsson, 1981, 1984; cited from earlier work
[4] = Pharmacokinetics after a single high intravenous dose of estramustine phosphate in patients; details: after a single high intravenous dose of estramustine phosphate at 1000 mg/m^2; FIG. 2
prostate cancer = details: given orally with escalating doses of docetaxel, cited from earlier work
[5] = test system: hormone refractory prostate cancer; details: oral, combined with Etoposide, cited from earlier work
[6] = cited from earlier work
[7] = test system: hormone refractory prostate cancer; details: with Taxol, cited from earlier work
[8] = test system: hormone refractory prostate cancer; details: oral, combined with vinblastine, cited from earlier work
[9] = test system: advanced metastatic prostate cancer; experiment: Clinical cases: weekly high-dose intravenous estramustine phosphate
tubulin = details: in vitro (Dahllof 1993); cited from earlier work
tumor cell division = details: tissue culture (Hartley-Asp, 1984); cited from earlier work
[10] = 245 patients, 300-600 mg/day i.v. for 21 days then once or twice weekly for 2 months (Andersson et al)
[11] = 1000 mg/m^2 i.v. central line, 30 minute infusion, three patients
[12] = 1500 mg/m^2 i.v. central line, 30 minutes or 1 hour infusion, three patients
[13] = 2000 mg/m^2 i.v. central line, 60 minute infusion, with anti-thrombotic agent, three patients
[14] = 2500 mg/m^2 i.v. central line, 90 minute infusion, two patients

For `C[C@]12CC[C@@H]3c4ccc(OC(=O)N(CCCl)CCCl)cc4CC[C@H]3[C@@H]1CCC2=O` [estromustine], the “binding affinity to EMBP-like protein” value [1] is listed as “very high affinity”, the “elimination half lives of estromustine” value [2] is listed as 10 to 20 h and the “yield of estradiol and estrone, respectively, by cleavage of the carbamic ester” value [3] is listed as “approximately 15%”. For the same compound, the “half life of estromustine” value [4] was “approximately 100 hours”.
For `C[C@]12CC[C@@H]3c4ccc(OC(=O)N(CCCl)CCCl)cc4CC[C@H]3[C@@H]1CC[C@@H]2OP(=O)(O)O` [estramustine phosphate], the “overall prostate specific antigen response rate” value (prostate cancer) is given as 62%, the “partial response in lymph nodes” value (prostate cancer; patients with bidimensionally measurable disease (3 patients)) is given as 43% and the “complete responses (CR)” value ([5]; 20 patients with soft tissue disease (3 patients)) is given as 15%. For the same compound, the “partial responses (PR)” value ([5]; 20 patients with soft tissue disease (6 patients)) was 30%, the “patients with bone metastases improved” value ([5]; 32 patients with bone metastases (8 patients)) was 25% and the “patients with bone metastases stable” value ([5]; 32 patients with bone metastases (12 patients)) was 38%. The “men with a 75% decrease in prostate specific antigen” value ([5]; overall, 13 men) was 25%, the “men with a 50% decrease in prostate specific antigen” value ([5]; overall, 28 men) was 54% and the “toxicity at 450 mg/day intravenous” value ([6]; 450 mg/day i.v. (Nagel and Kölln 1977)) was “severe gastrointestinal problems”. The “patients with severe liver problems” value ([6]; 900 mg/day i.v. for 7-10 days followed by oral therapy, 11 of 18 patients (Maier 1990)) was 61%, the “patients exhibiting gastrointestinal problems” value [6, 10] was 17% and the “patients exhibiting liver disturbances” value [6, 10] was 9%. The patients exhibiting thrombophlebitis [6, 10] was 20%, the “transient hepatic enzyme elevation of grade 1-3” value ([7]; 6 patients) was 35.2% and the edema ([7]; 8 patients) was 47%. For the same compound, the “patients obtaining a PR” value ([7]; of six patients with measurable disease, PR of 2+, 6, and 8 months) was 3, the “Grade 3-4 granulocytopenia and mucositis” value ([7]; seventeen patients) was 2 patients and the “median duration of response” value ([7]; seventeen patients) was 7 months. The “nausea grade 1-2” value ([7]; seventeen patients) was 70.5%, the “patients with PSA decreased by ≧50%” value ([7]; seventeen patients) was 58.8% and the “incidence of significant cardiovascular toxicity” value ([8]; 4/37) was 10.5%. The “decrease in prostate specific antigen” value ([8]; among 88 patients) was 50-75%, the most frequent toxicity [8] was “mild to moderate nausea” and the PSA response [9, 11] was “several patients demonstrating PSA response”. For the same compound, the tolerability of infusions [9, 11] was “well tolerated”, the tolerability of infusions [9, 12] was “well tolerated” and the tumor response [9, 12] was “one patient demonstrating a response in bulky tumor adenopathy”. For the same compound, the PSA response [9, 13] was “evidence of PSA response”, the tolerability of infusions [9, 13] was “well tolerated without serious toxicity” and the “prostate specific antigen (PSA) response” value [9, 14] was “both patients demonstrated a response (reduction)”. The tolerability of infusions [9, 14] was “well tolerated without serious toxicity”.
In the case of `C[C@]12CC[C@@H]3c4ccc(OC(=O)N(CCCl)CCCl)cc4CC[C@H]3[C@@H]1CC[C@@H]2O` [estramustine], the “binding affinity to EMBP-like protein” value [1] is listed as “very high affinity”, the “effect on assembly of microtubules composed of only tubulin” value (tubulin) is listed as “inhibited the assembly of microtubules” and the “yield of estradiol and estrone, respectively, by cleavage of the carbamic ester” value [3] is listed as “approximately 15%”. The anti-mitotic effect (tumor cell division) was “dose-dependent blocking of tumor cell division in the metaphase”.
